Data published in PubChem BioAssay AID1919013 (Molecular Pharmacology Branch, DTP, NCI, 2023).
Values belong to the compound of their own block, whether it stands above or below them.

Test system: LG0703-F498-PDC complex spheroid growth
Experiment: Anticancer human tumor LG0703-F498-PDC patient-derived lung adenocarcinoma cell line growth inhibition [AhR]
Conditions: for IC50: curve of first compound; for viability, T/C: stronger effect = lower value
How it was run: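 Spheroids combined tumor cells with HUVEC endothelial cells and human MSCs as stroma. AhR antagonists were paired with standard or investigational drugs, each dosed in half-log steps down from near clinical Cmax, or from 10 microM where Cmax was unknown.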

[1] = second compound 0.1 µM, first compound 0.0316 µM
[2] = second compound 0.1 µM, first compound 0.1 µM
[3] = second compound 0.316 µM, first compound 0.0316 µM
[4] = second compound 0.316 µM, first compound 0.1 µM
[5] = second compound 1 µM, first compound 0.0316 µM
[6] = second compound 1 µM, first compound 0.1 µM
[7] = second compound 3.16 µM, first compound 0.0316 µM
[8] = second compound 3.16 µM, first compound 0.1 µM
[9] = second compound 10 µM, first compound 0.0316 µM
[10] = second compound 10 µM, first compound 0.1 µM
[11] = second compound 0.1 µM, first compound 0.316 µM
[12] = second compound 0.1 µM, first compound 1 µM
[13] = second compound 0.1 µM, first compound 3.16 µM
[14] = second compound 0.1 µM, first compound 10 µM
[15] = second compound 0.316 µM, first compound 0.316 µM
[16] = second compound 0.316 µM, first compound 1 µM
[17] = second compound 0.316 µM, first compound 3.16 µM
[18] = second compound 0.316 µM, first compound 10 µM
[19] = second compound 1 µM, first compound 0.316 µM
[20] = second compound 1 µM, first compound 1 µM
[21] = second compound 1 µM, first compound 3.16 µM
[22] = second compound 1 µM, first compound 10 µM
[23] = second compound 3.16 µM, first compound 0.316 µM
[24] = second compound 3.16 µM, first compound 1 µM
[25] = second compound 3.16 µM, first compound 3.16 µM
[26] = second compound 3.16 µM, first compound 10 µM
[27] = second compound 10 µM, first compound 0.316 µM
[28] = second compound 10 µM, first compound 1 µM
[29] = second compound 10 µM, first compound 3.16 µM
[30] = second compound 10 µM, first compound 10 µM
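Further: luminescence taken as a proxy for viable cell amount.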
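Wherever viability, T/C is given: percent of DMSO vehicle control where 100% means growth equal to vehicle.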

Compound: CC[C@@]1(O)C(=O)OCc2c1cc1n(c2=O)Cc2cc3c(CN(C)C)c(O)ccc3nc2-1 + Cc1ccccc1N=Nc1ccc(NC(=O)c2ccnn2C)c(C)c1
IC50 (second compound 0.1 µM): > 0.1 µM
IC50 (second compound 0.316 µM): > 0.1 µM
IC50 (second compound 1 µM): > 0.1 µM
IC50 (second compound 3.16 µM): > 0.1 µM
IC50 (second compound 10 µM): > 0.1 µM
viability, T/C (second compound 0.1 µM, first compound 0.000316 µM): 94.9%
viability, T/C (second compound 0.1 µM, first compound 0.001 µM): 116%
viability, T/C (second compound 0.1 µM, first compound 0.00316 µM): 92.2%
viability, T/C (second compound 0.1 µM, first compound 0.01 µM): 96.2%
viability, T/C [1]: 88.5%
viability, T/C [2]: 60.3%
viability, T/C (second compound 0.316 µM, first compound 0.000316 µM): 97.8%
viability, T/C (second compound 0.316 µM, first compound 0.001 µM): 93.6%
viability, T/C (second compound 0.316 µM, first compound 0.00316 µM): 78.5%
viability, T/C (second compound 0.316 µM, first compound 0.01 µM): 93.6%
viability, T/C [3]: 77.2%
viability, T/C [4]: 66.6%
viability, T/C (second compound 1 µM, first compound 0.000316 µM): 93.9%
viability, T/C (second compound 1 µM, first compound 0.001 µM): 82.2%
viability, T/C (second compound 1 µM, first compound 0.00316 µM): 83.5%
viability, T/C (second compound 1 µM, first compound 0.01 µM): 82.2%
viability, T/C [5]: 78.9%
viability, T/C [6]: 61.2%
viability, T/C (second compound 3.16 µM, first compound 0.000316 µM): 84.4%
viability, T/C (second compound 3.16 µM, first compound 0.001 µM): 83.9%
viability, T/C (second compound 3.16 µM, first compound 0.00316 µM): 86.1%
viability, T/C (second compound 3.16 µM, first compound 0.01 µM): 72.6%
viability, T/C [7]: 61.1%
viability, T/C [8]: 51.1%
viability, T/C (second compound 10 µM, first compound 0.000316 µM): 72.9%
viability, T/C (second compound 10 µM, first compound 0.001 µM): 80.5%
viability, T/C (second compound 10 µM, first compound 0.00316 µM): 78.7%
viability, T/C (second compound 10 µM, first compound 0.01 µM): 63.9%
viability, T/C [9]: 57.1%
viability, T/C [10]: 60.2%

Compound: COc1cc(C2c3cc4c(cc3C(OC3OC5COC(C)OC5C(O)C3O)C3COC(=O)C23)OCO4)cc(OC)c1O (stereo not given) + Cc1ccccc1N=Nc1ccc(NC(=O)c2ccnn2C)c(C)c1
IC50 (second compound 0.1 µM): > 10 µM
IC50 (second compound 0.316 µM): > 10 µM
IC50 (second compound 1 µM): > 10 µM
IC50 (second compound 3.16 µM): > 10 µM
IC50 (second compound 10 µM): > 10 µM
viability, T/C [1]: 94.8%
viability, T/C [2]: 103%
viability, T/C [11]: 86.2%
viability, T/C [12]: 95.2%
viability, T/C [13]: 91.3%
viability, T/C [14]: 72.1%
viability, T/C [3]: 96.2%
viability, T/C [4]: 93.5%
viability, T/C [15]: 106%
viability, T/C [16]: 79.5%
viability, T/C [17]: 68.4%
viability, T/C [18]: 59.3%
viability, T/C [5]: 79.2%
viability, T/C [6]: 104%
viability, T/C [19]: 99.4%
viability, T/C [20]: 79.8%
viability, T/C [21]: 65.2%
viability, T/C [22]: 62.7%
viability, T/C [7]: 85.5%
viability, T/C [8]: 94%
viability, T/C [23]: 93.5%
viability, T/C [24]: 80.2%
viability, T/C [25]: 74.2%
viability, T/C [26]: 59.6%
viability, T/C [9]: 77%
viability, T/C [10]: 96.5%
viability, T/C [27]: 93.5%
viability, T/C [28]: 73.5%
viability, T/C [29]: 81.4%
viability, T/C [30]: 70.6%

Compound: O=C(c1cc(Cc2n[nH]c(=O)c3ccccc23)ccc1F)N1CCN(C(=O)C2CC2)CC1 + Cc1ccccc1N=Nc1ccc(NC(=O)c2ccnn2C)c(C)c1
IC50 (second compound 0.1 µM): > 10 µM
IC50 (second compound 0.316 µM): > 10 µM
IC50 (second compound 1 µM): > 10 µM
IC50 (second compound 3.16 µM): > 10 µM
IC50 (second compound 10 µM): > 10 µM
viability, T/C [1]: 89.3%
viability, T/C [2]: 94.8%
viability, T/C [11]: 89.8%
viability, T/C [12]: 93.8%
viability, T/C [13]: 85.7%
viability, T/C [14]: 84.6%
viability, T/C [3]: 96.5%
viability, T/C [4]: 119%
viability, T/C [15]: 95.7%
viability, T/C [16]: 102%
viability, T/C [17]: 102%
viability, T/C [18]: 79.9%
viability, T/C [5]: 86.7%
viability, T/C [6]: 98%
viability, T/C [19]: 88.7%
viability, T/C [20]: 94.4%
viability, T/C [21]: 90.2%
viability, T/C [22]: 82.2%
viability, T/C [7]: 82.1%
viability, T/C [8]: 97.1%
viability, T/C [23]: 83.5%
viability, T/C [24]: 86.9%
viability, T/C [25]: 83.9%
viability, T/C [26]: 73.9%
viability, T/C [9]: 85.6%
viability, T/C [10]: 93%
viability, T/C [27]: 94.5%
viability, T/C [28]: 77.8%
viability, T/C [29]: 72.3%
viability, T/C [30]: 70.5%

The next compounds have a lower IC50 (second compound 0.1 µM) than those just listed; values first:

IC50 (second compound 0.1 µM): 0.0494 µM
IC50 (second compound 0.316 µM): 0.0433 µM
IC50 (second compound 1 µM): 0.0307 µM
IC50 (second compound 3.16 µM): 0.0239 µM
IC50 (second compound 10 µM): 0.0371 µM
Compound: CCc1c2c(nc3ccc(O)cc13)-c1cc3c(c(=O)n1C2)COC(=O)[C@]3(O)CC + Cc1ccccc1N=Nc1ccc(NC(=O)c2ccnn2C)c(C)c1
viability, T/C (second compound 0.1 µM, first compound 0.000949 µM): 79.1%
viability, T/C (second compound 0.1 µM, first compound 0.003 µM): 92.9%
viability, T/C (second compound 0.1 µM, first compound 0.00949 µM): 77.1%
viability, T/C (second compound 0.1 µM, first compound 0.03 µM): 56.8%
viability, T/C (second compound 0.1 µM, first compound 0.0949 µM): 41.5%
viability, T/C (second compound 0.1 µM, first compound 0.3 µM): 29.2%
viability, T/C (second compound 0.316 µM, first compound 0.000949 µM): 98.5%
viability, T/C (second compound 0.316 µM, first compound 0.003 µM): 94.6%
viability, T/C (second compound 0.316 µM, first compound 0.00949 µM): 75.8%
viability, T/C (second compound 0.316 µM, first compound 0.03 µM): 57.9%
viability, T/C (second compound 0.316 µM, first compound 0.0949 µM): 35.6%
viability, T/C (second compound 0.316 µM, first compound 0.3 µM): 24.9%
viability, T/C (second compound 1 µM, first compound 0.000949 µM): 86.5%
viability, T/C (second compound 1 µM, first compound 0.003 µM): 79.7%
viability, T/C (second compound 1 µM, first compound 0.00949 µM): 69.2%
viability, T/C (second compound 1 µM, first compound 0.03 µM): 48.4%
viability, T/C (second compound 1 µM, first compound 0.0949 µM): 36.3%
viability, T/C (second compound 1 µM, first compound 0.3 µM): 24.5%
viability, T/C (second compound 3.16 µM, first compound 0.000949 µM): 93.9%
viability, T/C (second compound 3.16 µM, first compound 0.003 µM): 83.3%
viability, T/C (second compound 3.16 µM, first compound 0.00949 µM): 64.3%
viability, T/C (second compound 3.16 µM, first compound 0.03 µM): 45%
viability, T/C (second compound 3.16 µM, first compound 0.0949 µM): 34.1%
viability, T/C (second compound 3.16 µM, first compound 0.3 µM): 21.7%
viability, T/C (second compound 10 µM, first compound 0.000949 µM): 65.8%
viability, T/C (second compound 10 µM, first compound 0.003 µM): 79%
viability, T/C (second compound 10 µM, first compound 0.00949 µM): 69.1%
viability, T/C (second compound 10 µM, first compound 0.03 µM): 51.7%
viability, T/C (second compound 10 µM, first compound 0.0949 µM): 35.8%
viability, T/C (second compound 10 µM, first compound 0.3 µM): 24.7%

IC50 (second compound 0.1 µM): < 0.0316 µM
IC50 (second compound 0.316 µM): < 0.0316 µM
IC50 (second compound 1 µM): < 0.0316 µM
IC50 (second compound 3.16 µM): < 0.0316 µM
IC50 (second compound 10 µM): < 0.0316 µM
Compound: Nc1ccn(C2OC(CO)C(O)C2(F)F)c(=O)n1 (stereo not given) + Cc1ccccc1N=Nc1ccc(NC(=O)c2ccnn2C)c(C)c1
viability, T/C [1]: 40.4%
viability, T/C [2]: 34.1%
viability, T/C [11]: 31%
viability, T/C [12]: 31.8%
viability, T/C [13]: 31%
viability, T/C [14]: 28.1%
viability, T/C [3]: 35.8%
viability, T/C [4]: 36.6%
viability, T/C [15]: 30.5%
viability, T/C [16]: 32%
viability, T/C [17]: 31.9%
viability, T/C [18]: 22.6%
viability, T/C [5]: 37.6%
viability, T/C [6]: 33.7%
viability, T/C [19]: 34.1%
viability, T/C [20]: 31.4%
viability, T/C [21]: 29.5%
viability, T/C [22]: 22.1%
viability, T/C [7]: 30.8%
viability, T/C [8]: 38.2%
viability, T/C [23]: 31%
viability, T/C [24]: 27.8%
viability, T/C [25]: 24.6%
viability, T/C [26]: 24.5%
viability, T/C [9]: 39.3%
viability, T/C [10]: 36.5%
viability, T/C [27]: 37.5%
viability, T/C [28]: 37.8%
viability, T/C [29]: 36.9%
viability, T/C [30]: 26.2%
